In patent US7915281B2, “Isoxazole, dihydroisoxazole, and oxadiazole substituted imidazo ring compounds and method” (3M Innovative Properties Company, priority 2004, dated 2011):

| SMILES | melting point [°C] |
| --- | --- |
| CCOCc1nc2c(N)nc3ccccc3c2n1Cc1cc(-c2ccccc2)no1 [Example 3, 2-(Ethoxymethyl)-1-[(3-phenylisoxazol-5-yl)methyl]-1H-imidazo[4,5-c]quinolin-4-amine] | 215 to 216 |
| Nc1nc2cccnc2c2c1nc(CO)n2Cc1cc(-c2ccc(F)cc2)no1 [Example 15, (4-Amino-1-{[3-(4-fluorophenyl)isoxazol-5-yl]methyl}-1H-imidazo[4,5-c][1,5]naphthyridin-2-yl)methanol] | 247 to 248 |
| CCOCc1nc2c(N)nc3ccccc3c2n1CCCc1cc(-c2ccccc2)no1 [Example 7, 2-(Ethoxymethyl)-1-[3-(3-phenylisoxazol-5-yl)propyl]-1H-imidazo[4,5-c]quinolin-4-amine] | 171 to 172 |
| Cc1nc(N)c2ncn(Cc3cc(-c4ccc(F)cc4)no3)c2c1C [Example 18, 1-{[3-(4-Fluorophenyl)isoxazol-5-yl]methyl}-6,7-dimethyl-1H-imidazo[4,5-c]pyridin-4-amine] | 244 to 246 |
| Cc1nc(N)c2nc(C)n(Cc3cc(-c4ccc(F)cc4)no3)c2c1C [Example 22, 1-{[3-(4-Fluorophenyl)isoxazol-5-yl]methyl}-2,6,7-trimethyl-1H-imidazo[4,5-c]pyridin-4-amine] | 278 to 279 |
| CCOCc1nc2c(N)nc3ccccc3c2n1Cc1cc(-c2ccc(F)cc2)no1 [Example 30, 2-(Ethoxymethyl)-1-{[3-(4-fluorophenyl)isoxazol-5-yl]methyl}-1H-imidazo[4,5-c]quinolin-4-amine] | 203 to 204 |
| CCOCc1nc2c(N)nc3ccccc3c2n1Cc1cc(C)no1 [Example 4, 2-(Ethoxymethyl)-1-[(3-methylisoxazol-5-yl)methyl]-1H-imidazo[4,5-c]quinolin-4-amine] | 178 to 180 |
| CCCc1nc2c(N)nc3ccccc3c2n1Cc1cc(-c2cccnc2)on1 [Example 36, 2-Propyl-1-[(5-pyridin-3-ylisoxazol-3-yl)methyl]-1H-imidazo[4,5-c]quinolin-4-amine] | 206 to 207 |
| CCOCc1nc2c(N)nc3ccccc3c2n1CCN1C(C)=NOC12CCCC2 [Example 16, 2-(Ethoxymethyl)-1-[2-(3-methyl-1-oxa-2,4-diazaspiro[4,4]non-2-en-4-yl)ethyl]-1H-imidazo[4,5-c]quinolin-4-amine] | 211 to 213 |
| CCCc1nc2c(N)nc3ccccc3c2n1CCc1cc(-c2ccc(F)cc2)no1 [Example 34, 1-{2-[3-(4-Fluorophenyl)isoxazol-5-yl]ethyl}-2-propyl-1H-imidazo[4,5-c]quinolin-4-amine] | 208 to 209 |
| CCOCc1nc2c(N)nc(C)c(C)c2n1Cc1cc(-c2ccc(F)cc2)no1 [Example 19, 2-(Ethoxymethyl)-1-{[3-(4-fluorophenyl)isoxazol-5-yl]methyl}-6,7-dimethyl-1H-imidazo[4,5-c]pyridin-4-amine] | 246 to 247 |
| CCOCc1nc2c(Cl)nc3ccccc3c2n1Cc1cc(-c2ccc(F)cc2)no1 [Example 29, 4-Chloro-2-(ethoxymethyl)-1-{[3-(4-fluorophenyl)isoxazol-5-yl]methyl}-1H-imidazo[4,5-c]quinoline] | 189 to 190 |
| CCc1nc2c(N)nc3ccccc3c2n1Cc1cc(-c2ccc(F)cc2)no1 [Example 26, 2-Ethyl-1-{[3-(4-fluorophenyl)isoxazol-5-yl]methyl}-1H-imidazo[4,5-c]quinolin-4-amine] | 232 to 233 |
| CCOCc1nc2c(N)nc3ccccc3c2n1CCCc1cc(C)no1 [Example 8, 2-(Ethoxymethyl)-1-[3-(3-methylisoxazol-5-yl)propyl]-1H-imidazo[4,5-c]quinolin-4-amine] | 163 to 164 |
| CCCc1nc2c(N)nc(C)c(C)c2n1Cc1cc(-c2ccc(F)cc2)no1 [Example 23, 1-{[3-(4-Fluorophenyl)isoxazol-5-yl]methyl}-6,7-dimethyl-2-propyl-1H-imidazo[4,5-c]pyridin-4-amine] | 227 to 229 |
| Nc1nc2ccccc2c2c1nc(CO)n2Cc1cc(-c2ccc(F)cc2)no1 [Example 31, (4-Amino-1-{[3-(4-fluorophenyl)isoxazol-5-yl]methyl}-1H-imidazo[4,5-c]quinolin-2-yl)methanol] | 262 to 263 |
| CCOCc1nc2c(N)nc3cccnc3c2n1Cc1cc(-c2ccc(F)cc2)no1 [Example 12, 2-(Ethoxymethyl)-1-{[3-(4-fluorophenyl)isoxazol-5-yl]methyl}-1H-imidazo[4,5-c][1,5]naphthyridin-4-amine] | 190 to 191 |
| CCOCc1nc2c(N)nc(C)c(C)c2n1Cc1cc(-c2cccnc2)no1 [Example 9, 2-(Ethoxymethyl)-6,7-dimethyl-1-[(3-pyridin-3-ylisoxazol-5-yl)methyl]-1H-imidazo[4,5-c]pyridin-4-amine] | 189 to 191 |
| CCc1nc2c(N)nc(C)c(C)c2n1Cc1cc(-c2ccc(F)cc2)no1 [Example 21, 2-Ethyl-1-{[3-(4-fluorophenyl)isoxazol-5-yl]methyl}-6,7-dimethyl-1H-imidazo[4,5-c]pyridin-4-amine] | 255 to 256 |

| SMILES | melting point [°C] |
| --- | --- |
| Nc1nc2ccccc2c2c1ncn2Cc1cc(-c2ccc(F)cc2)no1 [Example 25, 1-{[3-(4-Fluorophenyl)isoxazol-5-yl]methyl}-1H-imidazo[4,5-c]quinolin-4-amine] | 259 to 260 |
| Fc1ccc(-c2cc(Cn3cnc4c(Cl)nc5ccccc5c43)on2)cc1 [Example 24, 4-Chloro-1-{[3-(4-fluorophenyl)isoxazol-5-yl]methyl}-1H-imidazo[4,5-c]quinoline] | 219 to 220 |
| CCOCc1nc2c(N)nc3ccccc3c2n1Cc1cc(-c2cccnc2)no1 [Example 5, 2-(Ethoxymethyl)-1-[(3-pyridin-3-ylisoxazol-5-yl)methyl]-1H-imidazo[4,5-c]quinolin-4-amine] | 240 to 242 |
| CCOCc1nc2c(N)nc3ccccc3c2n1CC1CC(C)=NO1 (stereo not shown) [Example 1, 2-(Ethoxymethyl)-1-[(3-methyl-4,5-dihydroisoxazol-5-yl)methyl]-1H-imidazo[4,5-c]quinolin-4-amine] | 204 to 205 |
| CCOCc1nc2c(N)nc3ccccc3c2n1CCc1cc(-c2ccc(F)cc2)no1 [Example 33, 2-(Ethoxymethyl)-1-{2-[3-(4-fluorophenyl)isoxazol-5-yl]ethyl}-1H-imidazo[4,5-c]quinolin-4-amine] | 180 to 181 |
| CCCc1nc2c(N)nc3ccccc3c2n1Cc1cc(-c2ccc(F)cc2)no1 [Example 27, 1-{[3-(4-Fluorophenyl)isoxazol-5-yl]methyl}-2-propyl-1H-imidazo[4,5-c]quinolin-4-amine] | 226 to 227 |
| Cc1nc(N)c2nc(CO)n(Cc3cc(-c4ccc(F)cc4)no3)c2c1C [Example 20, (4-Amino-1-{[3-(4-fluorophenyl)isoxazol-5-yl]methyl}-6,7-dimethyl-1H-imidazo[4,5-c]pyridin-2-yl)methanol] | 164 to 165 |
| CCOCc1nc2c(N)nc3ccccc3c2n1CCCc1cc(-c2cccnc2)no1 [Example 6, 2-(Ethoxymethyl)-1-[3-(3-pyridin-3-ylisoxazol-5-yl)propyl]-1H-imidazo[4,5-c]quinolin-4-amine] | 199 to 200 |
| Nc1nc2c(c3c1ncn3Cc1cc(-c3ccc(F)cc3)no1)NCCC2 [Example 17, 1-{[3-(4-Fluorophenyl)isoxazol-5-yl]methyl}-6,7,8,9-tetrahydro-1H-imidazo[4,5-c][1,5]naphthyridin-4-amine] | 227 to 228 |
| Cc1nc2c(N)nc3ccccc3c2n1Cc1cc(-c2ccc(F)cc2)no1 [Example 28, 1-{[3-(4-Fluorophenyl)isoxazol-5-yl]methyl}-2-methyl-1H-imidazo[4,5-c]quinolin-4-amine] | 294 to 296 |
| CCOCc1nc2c(N)nc3ccccc3c2n1Cc1cc(-c2ccccc2)on1 [Example 37, 2-(Ethoxymethyl)-1-[(5-phenylisoxazol-3-yl)methyl]-1H-imidazo[4,5-c]quinolin-4-amine] | 221 to 223 |
| Nc1nc2cccnc2c2c1ncn2Cc1cc(-c2ccc(F)cc2)no1 [Example 11, 1-{[3-(4-Fluorophenyl)isoxazol-5-yl]methyl}-1H-imidazo[4,5-c][1,5]naphthyridin-4-amine] | 265 to 266 |
| CCCCc1cc(Cn2cnc3c(N)nc4ccccc4c32)no1 [Example 35, 1-[(5-Butylisoxazol-3-yl)methyl]-1H-imidazo[4,5-c]quinolin-4-amine] | 201 to 203 |
| CCCc1nc2c(N)nc3cccnc3c2n1Cc1cc(-c2ccc(F)cc2)no1 [Example 14, 1-{[3-(4-Fluorophenyl)isoxazol-5-yl]methyl}-2-propyl-1H-imidazo[4,5-c][1,5]naphthyridin-4-amine] | 238 to 239 |
| CCOCc1nc2c(N)nc3ccccc3c2n1CCN1C(C)=NOC1(C)C [Example 10, 2-Ethoxymethyl-1-[2-(3,5,5-trimethyl-1,2,4-oxadiazol-4(5H)-yl)ethyl]-1H-imidazo[4,5-c]quinolin-4-amine] | 204 to 205 |
| CCOCc1nc2c(N)nc3ccccc3c2n1CC1CC(c2ccccc2)=NO1 (stereo not shown) [Example 2, 2-(Ethoxymethyl)-1-[(3-phenyl-4,5-dihydroisoxazol-5-yl)methyl]-1H-imidazo[4,5-c]quinolin-4-amine] | 235 to 237 |
| Nc1nc2ccccc2c2c1nc(CF)n2Cc1cc(-c2ccc(F)cc2)no1 [Example 32, 2-(Fluoromethyl)-1-{[3-(4-fluorophenyl)isoxazol-5-yl]methyl}-1H-imidazo[4,5-c]quinolin-4-amine] | 192 to 193 |
| Cc1nc2c(N)nc3cccnc3c2n1Cc1cc(-c2ccc(F)cc2)no1 [Example 13, 1-{[3-(4-Fluorophenyl)isoxazol-5-yl]methyl}-2-methyl-1H-imidazo[4,5-c][1,5]naphthyridin-4-amine] | 239 to 240 |
